The values below come from patent US7449447B2, “Peptidomimetic NS3-serine protease inhibitors of hepatitis C virus” (priority 2003, dated 2008).

The target in one assay is T1, HCV NS3/NS4a serine protease (Hepatitis C virus genotype 1b, UniProt P26663).
T1 construct: amino terminus of the NS3 protease domain (amino acids 3-181) with a tetrapeptide linker; made in house; host or cells: E. coli
T1 sequence (P26663 1013-1207, looked up, natural form): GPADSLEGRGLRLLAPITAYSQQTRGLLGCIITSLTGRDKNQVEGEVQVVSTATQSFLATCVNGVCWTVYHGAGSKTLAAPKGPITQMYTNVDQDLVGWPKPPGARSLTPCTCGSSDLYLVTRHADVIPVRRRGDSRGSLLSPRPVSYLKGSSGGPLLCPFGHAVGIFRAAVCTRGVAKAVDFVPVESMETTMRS
In words: Spectrophotometric assay for HCV protease inhibitory activity (chromogenic ester substrates). The assay is classed as biochemical, hepatitis C virus (strain 1b). The conditions noted are these: Ki Rating, Table 2; single chain NS4A21-32-GSGS-NS3 3-181 protease, 30° C., pH 6.5. The procedure: Spectrophotometric Assay: Spectrophotometric assays for the HCV serine protease were performed on the inventive compounds by following the procedure described by R. Zhang et al., Analytical Biochemistry, 270 (1999) 268-275, the disclosure of which is incorporated herein by reference. The assay based on the proteolysis of chromogenic ester substrates is suitable for the continuous monitoring of HCV NS3 protease activity.
HCV NS3 protease (strain 1b) and its NS4A cofactor were constructed as a recombinant single chain protein. The NS4A cofactor domain (amino acid residues 21-32) was fused in frame to the amino terminus of the NS3 protease domain (amino acids 3-181) with a tetrapeptide linker. This NS4A 21-32-GSGS-NS33-181 construct was then expressed in E. coli and purified to >90% homogeneity. Kinetic parameters were determined and found to be the same as that of the full length NS31-631/NS4A1-54 protein complex produced in the baculovirus system (D. L. Sali et al, Biochemistry, 37 (1998) 3392-340). The details of the cloning, expression, purification and kinetic analysis of the of the single chain recombinant protease have been previously described (S. S. Taremi, et al. Protein Science. 7 (1998) 2143-2149.
Protein concentrations were determined by the Biorad dye method using recombinant HCV protease standards previously quantified by amino acid analysis. Prior to assay initiation, the enzyme storage buffer (50 mM sodium phosphate pH 8.0, 300 mM NaCl, 10% glycerol, 0.05% lauryl maltoside and 10 mM DTT) was exchanged for the assay buffer (25 mM MOPS pH 6.5, 300 mM NaCl, 10% glycerol, 0.05% lauryl maltoside, 5 μM EDTA and 5 μM DTT) utilizing a Biorad Bio-Spin P-6 prepacked column.
Protease Assay: HCV protease assays were performed at 30° C. using a 200 μl reaction mix in a 96-well microtiter plate. Assay buffer conditions (25 mM MOPS pH 6.5, 300 mM NaCl, 10% glycerol, 0.05% lauryl maltoside, 5 μM EDTA and 5 μM DTT) were optimized for the NS3/NS4A heterodimer (D. L. Sali et al, ibid.)). Typically, 100 μl mixtures of buffer, substrate and inhibitor were placed in wells and allowed to preincubate at 30° C. for approximately 3 minutes. One hundred μls of pre-warmed protease (30° C.) in assay buffer, was then used to initiate the reaction to produce a final concentration of 1.3 nM HCV). The Substrate cleavage by the protease was monitored over 60 minutes by measuring the release of the phenylazophenol (PAP) product at an absorbance of 370 nm with a continuous read every 30 seconds using a SpectraMax Plus microtiter plate reader (Molecular Devices, Sunnyvale, Calif.). Background hydrolysis of the substrate was subtracted. Inhibitors were tested over a range of concentrations (final DMSO concentration 4%)
Evaluation of Inhibitors The inhibition constants (Ki) for the competitive inhibitors were determined experimentally at fixed concentrations of enzyme and substrate by plotting vo/vi vs. inhibitor concentration ([I]o) according to the rearranged Michaelis-Menten equation for competitive inhibition kinetics: vo/vi=1+[I]o/(Ki(1+[S]o/Km)), where vo is the uninhibited initial velocity, vi is the initial velocity in the presence of inhibitor at any given inhibitor concentration ([I]o) and [S]o is the substrate concentration used. The resulting data were fitted using linear regression and the resulting slope, 1/(Ki(1+[S]o/Km), was used to calculate the Ki value.
The Ki is a measure of affinity in units of concentration, obtained from inhibition or displacement. As to `COC(=O)[C@H](CC(F)F)NC(=O)[C@@H]1[C@H]2CC(C)(C)O[C@H]2CN1C(=O)[C@@H](NC(=O)OCc1ccccc1)C1CCCCC1` [Example 170], the inhibition constant (Ki) was over 500 nM.

Consider `CC(C)(C)OC(=O)N[C@H](C(=O)N1C[C@H]2[C@@H]([C@H]1C(=O)NC(CC(F)F)C(=O)O)C2(C)C)C(C)(C)C` (stereo partly shown) [Example 167], for which the inhibition constant (Ki) was over 500 nM.

In the case of `CC1(NC(=O)N[C@H](C(=O)N2C[C@H]3[C@@H]([C@H]2C(=O)NC(CC(F)F)C(=O)NCCc2ccccc2)C3(C)C)C(C)(C)C)CCCCC1` (stereo partly shown) [Example 145], the inhibitory constant (Ki) is over 500 nM.

With `CC(C)[C@H](NC(=O)N[C@H](C(=O)N1C[C@H]2[C@@H]([C@H]1C(=O)N[C@@H](CC(F)F)C(=O)O)C2(C)C)C(C)(C)C)C(=O)OC(C)(C)C` [Example 153], the inhibition constant (Ki) was over 500 nM.

Take `CC(C)(C)OC(=O)N[C@H](C(=O)N1C[C@H]2[C@@H]([C@H]1C(=O)NC(CC(F)F)C(=O)NCCc1ccccc1)C2(C)C)C(C)(C)C` (stereo partly shown) [Example 151]: the inhibition constant (Ki) is over 500 nM.

Regarding `COC(=O)c1ccc(CCNC(=O)[C@H](CC(F)F)NC(=O)[C@@H]2[C@@H]3[C@H](CN2C(=O)[C@@H](NC(=O)N[C@H](C(=O)OC(C)(C)C)C(C)C)C(C)(C)C)C3(C)C)cc1` [Example 133], the Ki fell in the range of 100 to 500 nM.

As to `CC(C)[C@H](NC(=O)N[C@H](C(=O)N1C[C@H]2[C@@H]([C@H]1C(=O)NC(CC(F)F)C(=O)NCCc1ccccc1)C2(C)C)C(C)(C)C)C(=O)OC(C)(C)C` (stereo partly shown) [Example 140], the inhibition constant Ki was in the range of 100 to 500 nM.

The assay is the same for the next values; noted with them: Ki, Table 1; single chain NS4A21-32-GSGS-NS3 3-181 protease, 30° C., pH 6.5.
As for `COC(=O)c1ccc(CCNC(=O)[C@H](CC(F)F)NC(=O)[C@@H]2[C@@H]3[C@H](CN2C(=O)[C@@H](NC(=O)NC2(CS(C)(=O)=O)CCCCC2)C(C)(C)C)C3(C)C)cc1` [Example 110], the Ki was found to be 40 nM.

With `CC(C)(C)[C@H](NC(=O)N[C@H](CN1CCCS1(=O)=O)C(C)(C)C)C(=O)N1C[C@H]2[C@@H](C1C(=O)NC(CC(F)F)C(=O)NCCc1ccc(C(=O)O)cc1Cl)C2(C)C` (stereo partly shown) [Example 102], the inhibition constant Ki is 21 nM.

As to `COC(=O)c1ccc(CCNC(=O)[C@H](CC(F)F)NC(=O)[C@@H]2C3C(CN2C(=O)[C@@H](NC(=O)N[C@H](CN(C)S(C)(=O)=O)C(C)(C)C)C2CCCCC2)C3(C)C)cc1` (stereo partly shown) [Example 101], the inhibitory constant (Ki) was 11 nM.

Take `CC(C)(C)[C@H](NC(=O)NC1(CS(C)(=O)=O)CCCCC1)C(=O)N1C[C@H]2[C@@H](C1C(=O)N[C@@H](CC(F)F)C(=O)NCCc1ccc(C(=O)O)cc1)C2(C)C` (stereo partly shown) [Example 107]: the Ki was determined as 29 nM.

The assay is the same for the next values; noted with them: Ki, Table 3; rating; single chain NS4A21-32-GSGS-NS3 3-181 protease, 30° C., pH 6.5.
Take `CN(C[C@@H](NC(=O)N[C@H](C(=O)N1C[C@H]2[C@@H]([C@H]1C(=O)N[C@@H](CC(F)F)C(=O)NCCc1ccc(O)c(O)c1)C2(C)C)C(C)(C)C)C(C)(C)C)S(C)(=O)=O` [Example 298]: the inhibition constant (Ki) was under 100 nM.

As for `COc1ccc(OC)c(CCNC(=O)[C@H](CC(F)F)NC(=O)[C@@H]2[C@@H]3[C@H](CN2C(=O)[C@@H](NC(=O)N[C@H](CN(C)S(C)(=O)=O)C(C)(C)C)C(C)(C)C)C3(C)C)c1` [Example 279], the Ki was 100 to 500 nM.

For the molecule `CN(CCc1ccccn1)C(=O)[C@H](CC(F)F)NC(=O)[C@@H]1[C@@H]2[C@H](CN1C(=O)[C@@H](NC(=O)N[C@H](CN(C)S(C)(=O)=O)C(C)(C)C)C(C)(C)C)C2(C)C` [Example 305], the Ki is over 500 nM.

Regarding `CCOCCCNC(=O)[C@H](CC(F)F)NC(=O)[C@@H]1[C@@H]2[C@H](CN1C(=O)[C@@H](NC(=O)N[C@H](CN(C)S(C)(=O)=O)C(C)(C)C)C(C)(C)C)C2(C)C` [Example 211], the inhibitory constant (Ki) is over 500 nM.

`CN(C[C@@H](NC(=O)N[C@H](C(=O)N1C[C@H]2[C@@H]([C@H]1C(=O)N[C@@H](CC(F)F)C(=O)NCCN1CCOCC1)C2(C)C)C(C)(C)C)C(C)(C)C)S(C)(=O)=O` [Example 240]: the Ki was over 500 nM.

For `CC(C)[C@@H](CO)NC(=O)[C@H](CC(F)F)NC(=O)[C@@H]1[C@@H]2[C@H](CN1C(=O)[C@@H](NC(=O)N[C@H](CN(C)S(C)(=O)=O)C(C)(C)C)C(C)(C)C)C2(C)C` [Example 232], the Ki is over 500 nM.

On to `CN(C[C@@H](NC(=O)N[C@H](C(=O)N1C[C@H]2[C@@H]([C@H]1C(=O)N[C@@H](CC(F)F)C(=O)N[C@@H]1c3ccccc3C[C@@H]1O)C2(C)C)C(C)(C)C)C(C)(C)C)S(C)(=O)=O` [Example 247], for which the inhibition constant (Ki) was over 500 nM.

`CN(C[C@@H](NC(=O)N[C@H](C(=O)N1C[C@H]2[C@@H]([C@H]1C(=O)N[C@@H](CC(F)F)C(=O)NCCc1cccc(C(F)(F)F)c1)C2(C)C)C(C)(C)C)C(C)(C)C)S(C)(=O)=O` [Example 282]: the Ki is under 100 nM.

In the case of `CCOc1ccccc1CCNC(=O)[C@H](CC(F)F)NC(=O)[C@@H]1[C@@H]2[C@H](CN1C(=O)[C@@H](NC(=O)N[C@H](CN(C)S(C)(=O)=O)C(C)(C)C)C(C)(C)C)C2(C)C` [Example 273], the Ki was under 100 nM.

For the molecule `COc1ccc(CCNC(=O)[C@H](CC(F)F)NC(=O)[C@@H]2[C@@H]3[C@H](CN2C(=O)[C@@H](NC(=O)N[C@H](CN(C)S(C)(=O)=O)C(C)(C)C)C(C)(C)C)C3(C)C)cc1OC` [Example 280], the inhibition constant Ki was under 100 nM.

As to `CC(O)CNC(=O)[C@H](CC(F)F)NC(=O)[C@@H]1[C@@H]2[C@H](CN1C(=O)[C@@H](NC(=O)N[C@H](CN(C)S(C)(=O)=O)C(C)(C)C)C(C)(C)C)C2(C)C` (stereo partly shown) [Example 231], the Ki was over 500 nM.

For the molecule `CN(C[C@@H](NC(=O)N[C@H](C(=O)N1C[C@H]2[C@@H]([C@H]1C(=O)N[C@@H](CC(F)F)C(=O)NCCc1ccncc1)C2(C)C)C(C)(C)C)C(C)(C)C)S(C)(=O)=O` [Example 237], the inhibition constant Ki was under 100 nM.

For the molecule `CN(C[C@@H](NC(=O)N[C@H](C(=O)N1C[C@H]2[C@@H]([C@H]1C(=O)N[C@@H](CC(F)F)C(=O)N1CCc3ccccc3C1)C2(C)C)C(C)(C)C)C(C)(C)C)S(C)(=O)=O` [Example 302], the Ki was over 500 nM.

As for `CN(C[C@@H](NC(=O)N[C@H](C(=O)N1C[C@H]2[C@@H]([C@H]1C(=O)N[C@@H](CC(F)F)C(=O)NCC(O)c1ccccc1)C2(C)C)C(C)(C)C)C(C)(C)C)S(C)(=O)=O` (stereo partly shown) [Example 246], the Ki lay in the range of 100 to 500 nM.

For the molecule `COc1ccc(CCNC(=O)[C@H](CC(F)F)NC(=O)[C@@H]2[C@@H]3[C@H](CN2C(=O)[C@@H](NC(=O)N[C@H](CN(C)S(C)(=O)=O)C(C)(C)C)C(C)(C)C)C3(C)C)cc1` [Example 271], the Ki was under 100 nM.

Turning to `CC1(C)CC(=O)N(C[C@@H](NC(=O)N[C@H](C(=O)N2C[C@H]3[C@@H]([C@H]2C(=O)N[C@@H](CC(F)F)C(=O)NCCc2c(F)cccc2F)C3(C)C)C(C)(C)C)C(C)(C)C)C(=O)C1` [Example 309], the Ki was under 100 nM.

Take `CN(C)CC(C)(C)CNC(=O)[C@H](CC(F)F)NC(=O)[C@@H]1[C@@H]2[C@H](CN1C(=O)[C@@H](NC(=O)N[C@H](CN(C)S(C)(=O)=O)C(C)(C)C)C(C)(C)C)C2(C)C` [Example 241]: the inhibitory constant (Ki) is over 500 nM.

On to `CN(C[C@@H](NC(=O)N[C@H](C(=O)N1C[C@H]2[C@@H]([C@H]1C(=O)N[C@@H](CC(F)F)C(=O)NCCCN1CCOCC1)C2(C)C)C(C)(C)C)C(C)(C)C)S(C)(=O)=O` [Example 242], for which the inhibitory constant (Ki) is over 500 nM.

In the case of `CN(C[C@@H](NC(=O)N[C@H](C(=O)N1C[C@H]2[C@@H]([C@H]1C(=O)N[C@@H](CC(F)F)C(=O)NCCCc1ccccc1)C2(C)C)C(C)(C)C)C(C)(C)C)S(C)(=O)=O` [Example 220], the Ki was over 500 nM.

Take `CN(C[C@@H](NC(=O)N[C@H](C(=O)N1C[C@H]2[C@@H]([C@H]1C(=O)N[C@@H](CC(F)F)C(=O)N1Cc3ccccc3C1)C2(C)C)C(C)(C)C)C(C)(C)C)S(C)(=O)=O` [Example 301]: the inhibition constant (Ki) is over 500 nM.
